System: clinically stable subjects with schizophrenia
Test: Clinical Study A (Phase 2a, placebo-controlled): MATRICS Consensus Cognitive Battery (MCCB)
Assay type: in vivo, human
From the text: A Phase 2a proof-of-concept (POC) study in clinically stable subjects with schizophrenia who were clinically stable and received stable doses of atypical antipsychotic therapy. The study was a Phase 2, multi-center, randomized, double-blind, placebo-controlled, parallel group study designed to evaluate the safety and efficacy of doses of (4s)-4-(5-phenyl-1,3,4-thiadiazol-2-yloxy)-1-azatricyclo[3.3.1.1^3,7]decane (Compound A) in clinically stable male and female subjects (ages 20 to 55, inclusive) with a Diagnostic and Statistical Manual of Mental Disorders Fourth Edition, Text Revision (DSM-IV-TR) diagnosis of schizophrenia. Psychiatric diagnoses were confirmed using the Mini-International Neuropsychiatric Interview (MINI) version 6.0.0. The criteria for clinical stability was determined by a combination of retrospective data (over the 4 months prior to the start of Screening, which will be supported by clinical records, patient, identified responsible contact person, and physician interviews), and prospective data assessed during the Prospective Stabilization Period of 28 to 42 days duration.
The study was a Phase 2, multi-center, randomized, double-blind, placebo-controlled, parallel group study designed to evaluate the safety and efficacy of doses of (4s)-4-(5-phenyl-1,3,4-thiadiazol-2-yloxy)-1-azatrieyclo[3.3.1.1^3,7]decane, which is also recognized as Compound A, in treating cognitive deficits in subjects with schizophrenia who were clinically stable and receiving one or two atypical antipsychotic medications. Study drug was administered orally.
The study consisted of a screening period of at least 28 and up to 42 days, a 84-day outpatient treatment period, a 14-day post-treatment period, and a post-treatment follow-up period. The screening period consisted of three visits: Screening Visit 1, Screening Visit 2, and Day −1. Upon completion of Day −1 procedures, eligible subjects were randomized through an Interactive Voice Response/Interactive Web-Based (IVR/IWB) system. Subjects were randomized in an equal ratio to one of three treatment groups (placebo, 10 mg Compound A, or 25 mg Compound A).
Subjects were randomized in a 1:1:1 ratio with placebo, 10 mg QD Compound A, of 25 mg Compound A. Each subject was instructed to take study drug once-daily in the morning for 12 weeks. Each daily dose was preferably taken with food. The subject and investigator were blinded to the treatment assignment throughout the study. The treatment assignments for the study subjects are shown below in Table 1.
The primary endpoint was the MCCB composite score, and the primary endpoint analysis was the change on the MCCB composite score from baseline to endpoint versus placebo. Other secondary measures included the MCCB domains, the NSA-16, the CANTAB cognition battery (measured at different time points from the MCCB), and the UPSA-2. The Positive and Negative Syndrome Scale (PANSS) was included to document stability in schizophrenia symptomatology.
The MCCB was developed by a consortium of academic, industry, the Food and Drug Administration (FDA) and National Institute of Mental Health ([…]) members called Measurement and Treatment Research to Improve Cognition in Schizophrenia (MATRICS). The battery was established in a multiple phase process that involved experts identifying cognitive tests in the literature that had shown deficits in schizophrenia, use of factor analysis to identify key domains of cognitive deficits in schizophrenia, and then empirically identifying the best tests for each domain based on reliability, validity and feasibility for use in clinical trials. The FDA has endorsed the MCCB as an appropriate outcome measure for Phase 3 CDS trials. […]

[1] = 25 mg QD, Change to Week 2, ITT
[2] = 25 mg QD, Change to Week 6, ITT
[3] = 25 mg QD, Change to Week 12, ITT

Compound: c1ccc(-c2nnc(O[C@@H]3C4CC5C[C@H]3C[N@](C5)C4)s2)cc1 [Compound A, (4s)-4-(5-phenyl-1,3,4-thiadiazol-2-yloxy)-1-azatricyclo[3.3.1.1^3,7]decane]
- MCCB Reasoning and Problem Solving: LS Mean (SE) of Change from Baseline [1]: 1.95 (0.92) T-score
- MCCB Reasoning and Problem Solving: Observed Mean (SD) of change from baseline [1]: 2.00 (6.25) T-score
- MCCB Attention/Vigilance: Difference from Placebo LS Mean (SE) of Difference [2]: 1.71 (1.41) T-score
- MCCB Attention/Vigilance: LS Mean (SE) of Change from Baseline [2]: 0.91 (1.06) T-score
- MCCB Attention/Vigilance: Observed Mean (SD) of change from baseline [2]: 1.09 (9.04) T-score
- MCCB Reasoning and Problem Solving: Difference from Placebo LS Mean (SE) of Difference [2]: 2.22 (1.08) T-score
- MCCB Reasoning and Problem Solving: LS Mean (SE) of Change from Baseline [2]: 2.18 (0.81) T-score
- MCCB Reasoning and Problem Solving: Observed Mean (SD) of change from baseline [2]: 2.11 (7.06) T-score
- MCCB Social Cognition: Difference from Placebo LS Mean (SE) of Difference [2]: −1.21 (1.40) T-score
- MCCB Social Cognition: LS Mean (SE) of Change from Baseline [2]: 0.30 (1.05) T-score
- MCCB Social Cognition: Observed Mean (SD) of change from baseline [2]: 0.06 (8.00) T-score
- MCCB Speed of Processing: Difference from Placebo LS Mean (SE) of Difference [2]: 1.84 (1.08) T-score
- MCCB Speed of Processing: LS Mean (SE) of Change from Baseline [2]: 2.24 (0.80) T-score
- MCCB Speed of Processing: Observed Mean (SD) of change from baseline [2]: 2.56 (5.36) T-score
- MCCB Verbal Learning: Difference from Placebo LS Mean (SE) of Difference [2]: 0.49 (1.18) T-score
- MCCB Verbal Learning: LS Mean (SE) of Change from Baseline [2]: 0.56 (0.88) T-score
- MCCB Verbal Learning: Observed Mean (SD) of change from baseline [2]: 0.41 (9.24) T-score
- MCCB Visual Learning: Difference from Placebo LS Mean (SE) of Difference [2]: −1.00 (1.65) T-score
- MCCB Visual Learning: LS Mean (SE) of Change from Baseline [2]: −1.15 (1.22) T-score
- MCCB Visual Learning: Observed Mean (SD) of change from baseline [2]: −1.06 (9.04) T-score
- MCCB Working Memory: Difference from Placebo LS Mean (SE) of Difference [2]: 2.39 (1.08) T-score
- MCCB Working Memory: LS Mean (SE) of Change from Baseline [2]: 1.88 (0.81) T-score
- MCCB Working Memory: Observed Mean (SD) of change from baseline [2]: 1.69 (7.43) T-score
- MCCB Attention/Vigilance: Difference from Placebo LS Mean (SE) of Difference [3]: 2.85 (1.57) T-score
- MCCB Attention/Vigilance: LS Mean (SE) of Change from Baseline [3]: 0.86 (1.16) T-score
- MCCB Attention/Vigilance: Observed Mean (SD) of change from baseline [3]: 0.88 (9.09) T-score
- MCCB Social Cognition: Difference from Placebo LS Mean (SE) of Difference [3]: −0.40 (1.61) T-score
- MCCB Social Cognition: LS Mean (SE) of Change from Baseline [3]: 0.19 (1.19) T-score
- MCCB Social Cognition: Observed Mean (SD) of change from baseline [3]: −0.14 (10.81) T-score
- MCCB Speed of Processing: Difference from Placebo LS Mean (SE) of Difference [3]: 0.37 (1.26) T-score
- MCCB Speed of Processing: LS Mean (SE) of Change from Baseline [3]: 1.66 (0.93) T-score
- MCCB Speed of Processing: Observed Mean (SD) of change from baseline [3]: 1.73 (7.28) T-score
- MCCB Verbal Learning: Difference from Placebo LS Mean (SE) of Difference [3]: 1.80 (1.17) T-score
- MCCB Verbal Learning: LS Mean (SE) of Change from Baseline [3]: 2.27 (0.87) T-score
- MCCB Verbal Learning: Observed Mean (SD) of change from baseline [3]: 2.24 (8.03) T-score
- MCCB Visual Learning: Difference from Placebo LS Mean (SE) of Difference [3]: 1.27 (1.68) T-score
- MCCB Visual Learning: LS Mean (SE) of Change from Baseline [3]: 0.83 (1.23) T-score
- MCCB Visual Learning: Observed Mean (SD) of change from baseline [3]: 1.24 (8.49) T-score
- MCCB Working Memory: Difference from Placebo LS Mean (SE) of Difference [3]: 2.03 (1.25) T-score
- MCCB Working Memory: LS Mean (SE) of Change from Baseline [3]: 2.14 (0.93) T-score
- MCCB Working Memory: Observed Mean (SD) of change from baseline [3]: 1.98 (6.84) T-score
- MCCB composite score: LS mean change from baseline (25 mg, baseline to Week 6, MNIRIVI analysis, placebo LS mean +0.49): +1.27
- MCCB domains with LS mean difference versus placebo greater in both dose groups (Week 6, 10 mg and 25 mg): 5 of the 7 MCCB domains
- MCCB composite score: statistical significance of difference from placebo (each dose group (10 mg, 25 mg), Week 6): did not reach the level of statistical significance
- Effect on cognition (patients with schizophrenia, summary statement): precognitive effects

From patent US20130317055A1, “NEURONAL NICOTINIC AGONIST AND METHODS OF USE” (ABBVIE INC., priority 2012, published 2013)
